Experimental data published in patent US20260042764A1, “COMPOSITIONS AND METHODS FOR INHIBITION OF KRAS” (TheRas, Inc., priority 2022, published 2026).

What was measured:
[1] = biological target: T1, Avi-KRAS G12D (1-169) GppNHp/RAF1 RBD-3xFLAG (52-151) (Homo sapiens, UniProt P01116, G12D); experiment: Raf1-KRAS G12D-GppNHP disruption HTRF assay (Biological Example 1); assay type: binding
T1 construct: Avi-KRAS G12D (1-169)
How it was run: (§1)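 Read-out is HTRF signal of the KRAS–RAF1 RBD complex, reported as percentage of activity relative to DMSO (100%). Protein mix and detection reagents each incubated 1 h at room temperature with 700 rpm shaking. Buffer: 50 mM Tris pH 7.5, 100 mM NaCl, 5 mM MgCl2, 0.1% BSA, 0.01% Tween, 10% DMSO.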

[2] = biological target: T2, Avi-KRAS G12V (1-169) GppNHp/RAF1 RBD-3xFLAG (52-151) (Homo sapiens, UniProt P01116, G12V); experiment: Raf1-KRAS G12V-GppNHP disruption HTRF assay (Biological Example 1); assay type: binding
T2 construct: Avi-KRAS G12V (1-169)
T2 sequence (P01116 1-169 isoform P01116-2 G12V): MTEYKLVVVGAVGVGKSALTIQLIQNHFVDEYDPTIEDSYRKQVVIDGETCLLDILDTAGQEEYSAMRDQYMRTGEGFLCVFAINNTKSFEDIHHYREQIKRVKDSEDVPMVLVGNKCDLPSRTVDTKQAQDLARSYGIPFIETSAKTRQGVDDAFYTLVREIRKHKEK
How it was run: as §1

[3] = tested on: GP2d cells (KRAS G12D); experiment: Cell-based pERK HTRF assay in GP2d cell (Biological Example 2); conditions: GP2d (KRAS G12D) cells
How it was run: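 Cells grown in DMEM with 10% FBS were exposed to compound for 60 min at 0.25% DMSO, using a 9-point half-log series starting at 1 μM or 100 nM. Lysates were then mixed with d2 and Eu cryptate antibodies for 4–24 h at room temperature, and pERK was read by HTRF.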

[4] = biological target: T3, Avi-KRAS WT (2-169) GTP/RAF1 RBD-3xFLAG (51-131) (Homo sapiens, UniProt P01116); experiment: Raf1-KRAS WT-GTP disruption HTRF assay (Biological Example 3); assay type: binding; conditions: KRAS WT, GTP-loaded
T3 construct: Avi-KRAS WT (2-169)
T3 sequence (P01116 2-169 isoform P01116-2): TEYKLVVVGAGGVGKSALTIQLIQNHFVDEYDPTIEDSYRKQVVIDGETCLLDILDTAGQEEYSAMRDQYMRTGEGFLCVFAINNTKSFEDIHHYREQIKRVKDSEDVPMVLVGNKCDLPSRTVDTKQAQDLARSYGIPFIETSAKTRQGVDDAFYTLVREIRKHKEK
How it was run: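 Each KRAS-GTP/RAF1 RBD complex at 50 nM, with 75 nM 3xFLAG-RAF1 RBD (51-131)-Avi, in 50 mM Tris pH 7.5, 100 mM NaCl, 5 mM MgCl2, 0.1% BSA, 0.01% Tween 20, 10% DMSO. Compounds titrated from 30 μM, 10-point 3x series; 1 h at room temperature with shaking. HTRF read, activity as percent of DMSO.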

[5] = KRAS G12D, GppNHp-loaded, class symbols
[6] = KRAS G12V, GppNHp-loaded, class symbols
[7] = KRAS G12D, GppNHp-loaded, Table 11
[8] = KRAS G12V, GppNHp-loaded, Table 11

T1 sequence (P01116 1-169 isoform P01116-2 G12D): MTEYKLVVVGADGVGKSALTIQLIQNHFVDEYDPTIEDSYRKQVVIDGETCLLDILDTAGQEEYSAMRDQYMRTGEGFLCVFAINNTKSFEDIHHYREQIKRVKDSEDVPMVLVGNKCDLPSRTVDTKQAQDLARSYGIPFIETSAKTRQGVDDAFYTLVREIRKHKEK

SMILES | IC50 ([1]; KRAS G12D-GppNHp/RAF1 RBD HTRF) [nM] | IC50 ([2]; KRAS G12V-GppNHp/RAF1 RBD HTRF) [nM] | IC50 ([3]; pERK HTRF) [nM] | IC50 ([3]; GP2d) [nM] | IC50 [4] [nM] | IC50 [1, 5] [nM] | IC50 [2, 6] [nM] | IC50 ([3]; GP2d, pERK HTRF, class symbols) [nM] | IC50 [1, 7] [nM] | IC50 [2, 8] [nM] | IC50 ([3]; GP2d, pERK HTRF) [nM]
CCC(=O)N1CC[C@@H](N(C)c2nc(OC[C@@]34CCCN3C[C@H](F)C4)nc3c(F)c(-c4ccc(F)c5sc(N)c(C#N)c45)c(C(F)(F)F)cc23)[C@H]1C (atropisomer, axis not shown) [Compound 335] | < 100 | < 100 | < 100 | < 100 | 100 to 1000 | – | – | – | – | – | –
CCN(c1nc(OC[C@@]23CCCN2C[C@H](F)C3)nc2c(F)c(-c3ccc(F)c4sc(N)c(C#N)c34)c(C(F)(F)F)cc12)[C@H]1CCN(C(C)=O)C1 [Compound 262] | – | – | – | < 100 | 100 to 1000 | – | – | – | < 100 | < 100 | < 100
CCN(c1nc(OC[C@@]23CCCN2C[C@H](F)C3)nc2c(F)c(-c3ccc(F)c4sc(N)c(C#N)c34)c(C(F)(F)F)cc12)[C@H]1C[C@H]2CCC(=O)N2C1 (atropisomer, axis not shown; (aR)) [Compound 573, 2-amino-4-((S)-4-(ethyl((2S,7aR)-5-oxohexahydro-1H-pyrrolizin-2-yl)amino)-8-fluoro-2-(((2R,7aS)-2-fluorotetrahydro-1H-pyrrolizin-7a(5H)-yl)methoxy)-6-(trifluoromethyl)quinazolin-7-yl)-7-fluorobenzo[b]thiophene-3-carbonitrile] | – | – | – | < 100 | ≤ 100 | < 100 | < 100 | < 100 | – | – | –
CCN(c1nc(OC[C@@]23CCCN2C[C@H](F)C3)nc2c(F)c(-c3ccc(F)c4sc(N)c(C#N)c34)c(C(F)(F)F)cc12)[C@H]1CCN(C(=O)OC)C1 [Compound 394] | < 100 | < 100 | – | < 100 | 100 to 1000 | – | – | – | – | – | < 100
N#Cc1c(N)sc2c(F)ccc(-c3c(C(F)(F)F)cc4c(N5CCCC[C@@H](O)C5)nc(OC[C@@]56CCCN5C[C@H](F)C6)nc4c3F)c12 [Compound 286] | < 100 | 100 to 1000 | – | < 100 | 100 to 1000 | – | – | – | – | – | < 100
CC(=O)N1C[C@H](N(C)c2nc(OC[C@@]34CCCN3C[C@H](F)C4)nc3c(F)c(-c4ccc(F)c5sc(N)c(C#N)c45)c(C(F)(F)F)cc23)C[C@@H]1C [Compound 298] | 100 to 1000 | 100 to 1000 | – | < 100 | 100 to 1000 | – | – | – | – | – | < 100
CCN(c1nc(OC[C@@]23CCCN2C[C@H](F)C3)nc2c(F)c(-c3ccc(F)c4sc(N)c(C#N)c34)c(C(F)(F)F)cc12)[C@H]1CCN(C(=O)C2CC2)C1 [Compound 331] | < 100 | 100 to 1000 | – | < 100 | 100 to 1000 | – | – | – | – | – | < 100
CCN(c1nc(OC[C@@]23CCCN2C[C@H](F)C3)nc2c(F)c(-c3ccc(F)c4sc(N)c(C#N)c34)c(C(F)(F)F)cc12)[C@H]1CCN(C(=O)C2CC2)[C@@H]1C (atropisomer, axis not shown) [Compound 579] | – | – | – | < 100 | 100 to 1000 | < 100 | < 100 | < 100 | – | – | –
CCN(c1nc(OC[C@@]23CCCN2C[C@H](F)C3)nc2c(F)c(-c3ccc(F)c4sc(N)c(C#N)c34)c(C(F)(F)F)cc12)[C@H]1CCN(C(=O)[C@H]2CCO2)C1 (atropisomer, axis not shown) [Compound 577] | – | – | – | < 100 | ≤ 100 | < 100 | < 100 | < 100 | – | – | –
CCN(c1nc(OC[C@@]23CCCN2C[C@H](F)C3)nc2c(F)c(-c3ccc(F)c4sc(N)c(C#N)c34)c(C(F)(F)F)cc12)[C@H]1CCN(C(=O)C2CC2(F)F)C1 (stereo partly shown) [Compound 581] | – | – | – | < 100 | 100 to 1000 | < 100 | < 100 | < 100 | – | – | –
N#Cc1c(N)sc2c(F)ccc(-c3c(C(F)(F)F)cc4c(N5CCNS(=O)(=O)CC5)nc(OC[C@@]56CCCN5C[C@H](F)C6)nc4c3F)c12 [Compound 245] | – | – | – | < 100 | 100 to 1000 | – | – | – | < 100 | 100 to 1000 | < 100
CC(=O)N1CC[C@@H](N(C)c2nc(OC[C@@]34CCCN3C[C@H](F)C4)nc3c(F)c(-c4ccc(F)c5sc(N)c(C#N)c45)c(C(F)(F)F)cc23)[C@H]1C (single isomer, unassigned) [Compound 193] | – | – | < 100 | < 100 | 100 to 1000 | – | – | – | < 100 | < 100 | –
C[C@@H]1[C@H](N(C)c2nc(OC[C@@]34CCCN3C[C@H](F)C4)nc3c(F)c(-c4ccc(F)c5sc(N)c(C#N)c45)c(C(F)(F)F)cc23)CCN1C(=O)C1CC1 (atropisomer, axis not shown) [Compound 333] | < 100 | 100 to 1000 | < 100 | < 100 | 100 to 1000 | – | – | – | – | – | –

Next, values leading:

IC50 ([1]; KRAS G12D-GppNHp/RAF1 RBD HTRF) [nM] | IC50 ([2]; KRAS G12V-GppNHp/RAF1 RBD HTRF) [nM] | IC50 ([3]; pERK HTRF) [nM] | IC50 ([3]; GP2d) [nM] | IC50 [4] [nM] | IC50 [1, 5] [nM] | IC50 [2, 6] [nM] | IC50 ([3]; GP2d, pERK HTRF, class symbols) [nM] | IC50 [1, 7] [nM] | IC50 [2, 8] [nM] | IC50 ([3]; GP2d, pERK HTRF) [nM] | SMILES
– | – | – | < 100 | > 10000 | 1000 to 10000 | 1000 to 10000 | < 100 | – | – | – | N#Cc1c(N)sc2c(F)ccc(-c3c(C(F)(F)F)cc4c(N(C5CC5)[C@H]5CCS(=O)(=O)C5)nc(OC[C@@]56CCCN5C[C@H](F)C6)nc4c3F)c12 [Compound 702]
– | – | – | < 100 | 1000 to 10000 | < 100 | 100 to 1000 | < 100 | – | – | – | CC(=O)N1CC[C@H](N(c2nc(OC[C@@]34CCCN3C[C@H](F)C4)nc3c(F)c(-c4ccc(F)c5sc(N)c(C#N)c45)c(C(F)(F)F)cc23)C2CC2)C1 (atropisomer, axis not shown) [Compound 608]
– | – | – | < 100 | 100 to 1000 | < 100 | 100 to 1000 | < 100 | – | – | – | CCN(c1nc(OC[C@@]23CCCN2C[C@H](F)C3)nc2c(F)c(-c3ccc(F)c4sc(N)c(C#N)c34)c(C(F)(F)F)cc12)[C@H]1C[C@@H](C)N(C(=O)C2COC2)C1 (atropisomer, axis not shown) [Compound 586]
– | – | – | 100 to 1000 | ≤ 100 | < 100 | < 100 | < 100 | – | – | – | C/C=C/C(=O)N1CC[C@H](N(CC)c2nc(OC[C@@]34CCCN3C[C@H](F)C4)nc3c(F)c(-c4ccc(F)c5sc(N)c(C#N)c45)c(C(F)(F)F)cc23)C1 (atropisomer, axis not shown) [Compound 674]
– | – | – | < 100 | 100 to 1000 | < 100 | < 100 | < 100 | – | – | – | CC(=O)N1CC[C@H](N(CCF)c2nc(OC[C@@]34CCCN3C[C@H](F)C4)nc3c(F)c(-c4ccc(F)c5sc(N)c(C#N)c45)c(C(F)(F)F)cc23)C1 (atropisomer, axis not shown) [Compound 622]
– | – | – | < 100 | 100 to 1000 | < 100 | < 100 | < 100 | – | – | – | C=C(C)C(=O)N1CC[C@H](N(CC)c2nc(OC[C@@]34CCCN3C[C@H](F)C4)nc3c(F)c(-c4ccc(F)c5sc(N)c(C#N)c45)c(C(F)(F)F)cc23)C1 (atropisomer, axis not shown) [Compound 673]
– | – | – | < 100 | 100 to 1000 | < 100 | < 100 | < 100 | – | – | – | CCN(c1nc(OC[C@@]23CCCN2C[C@H](F)C3)nc2c(F)c(-c3ccc(F)c4sc(N)c(C#N)c34)c(C(F)(F)F)cc12)[C@H]1CCN(C(=O)[C@@H]2CCO2)C1 (atropisomer, axis not shown) [Compound 603]
– | – | – | < 100 | 100 to 1000 | < 100 | < 100 | < 100 | – | – | – | CCN(c1nc(OC[C@@]23CCCN2C[C@H](F)C3)nc2c(F)c(-c3ccc(F)c4sc(N)c(C#N)c34)c(C(F)(F)F)cc12)[C@H]1CCN(C(=O)c2ccns2)C1 (atropisomer, axis not shown) [Compound 726]
– | – | – | < 100 | 100 to 1000 | 100 to 1000 | 100 to 1000 | < 100 | – | – | – | CCN(c1nc(OC[C@@]23CCCN2C[C@H](F)C3)nc2c(F)c(-c3ccc(F)c4sc(N)c(C#N)c34)c(C(F)(F)F)cc12)[C@H]1CC(=O)N(CC(F)F)C1 (atropisomer, axis not shown) [Compound 613]
– | – | – | < 100 | ≤ 100 | < 100 | < 100 | < 100 | – | – | – | CCN(c1nc(OC[C@@]23CCCN2C[C@H](F)C3)nc2c(F)c(-c3ccc(F)c4sc(N)c(C#N)c34)c(C(F)(F)F)cc12)[C@H]1CCN(C(=O)N(C)C)[C@@H]1C (atropisomer, axis not shown) [Compound 749]
